Results: paper PMC5353688, “Both Drosophila matrix metalloproteinases have released and membrane-tethered forms but have different substrates” (Scientific Reports, 2017)

Key:
[1] = biological target: T1, DmMmp2 (Drosophila melanogaster, UniProt Q8MPP3); test: gelatin zymography of FLAG immunoprecipitate; assay type: biochemical; conditions: GM6001 25 uM in sample before electrophoresis, 10 uM in renaturing and developing buffers; gelatin substrate; complete inhibition, no constant
T1 construct: gene Mmp2; full-length cDNA, 3xFLAG inserted after S710 (before GPI-anchor signal), expressed in S2 cells, immunoprecipitated from conditioned media (released form); ~110 kDa in lysate
T1 sequence (Q8MPP3 137-738): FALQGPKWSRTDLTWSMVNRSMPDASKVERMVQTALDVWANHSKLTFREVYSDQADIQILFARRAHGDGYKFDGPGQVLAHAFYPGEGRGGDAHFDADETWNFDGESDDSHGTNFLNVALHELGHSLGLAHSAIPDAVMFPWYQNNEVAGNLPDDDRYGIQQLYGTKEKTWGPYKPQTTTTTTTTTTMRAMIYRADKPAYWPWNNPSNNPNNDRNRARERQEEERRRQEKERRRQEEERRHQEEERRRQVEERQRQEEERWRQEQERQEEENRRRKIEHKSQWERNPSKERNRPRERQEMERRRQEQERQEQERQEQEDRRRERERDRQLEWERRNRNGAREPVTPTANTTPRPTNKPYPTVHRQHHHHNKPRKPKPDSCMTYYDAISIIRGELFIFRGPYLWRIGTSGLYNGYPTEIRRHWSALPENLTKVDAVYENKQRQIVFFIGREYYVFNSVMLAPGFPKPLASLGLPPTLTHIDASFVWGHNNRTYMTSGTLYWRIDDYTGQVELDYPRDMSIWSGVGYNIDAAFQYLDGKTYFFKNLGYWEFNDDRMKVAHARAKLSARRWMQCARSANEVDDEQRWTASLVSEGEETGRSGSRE

[2] = biological target: T2, DmMmp1 (Mmp1-PF) (Drosophila melanogaster, UniProt Q8MLN6); assay type: biochemical; conditions: GM6001 25 uM in sample before electrophoresis, 10 uM in renaturing and developing buffers; casein substrate; complete inhibition, no constant
T2 construct: full-length cDNA (541 residues), C-terminal FLAG kept, expressed in S2 cells, immunoprecipitated from conditioned media; secreted form has lost pro-domain; ~65 kDa in lysate
T2 sequence (Q8MLN6 109-541): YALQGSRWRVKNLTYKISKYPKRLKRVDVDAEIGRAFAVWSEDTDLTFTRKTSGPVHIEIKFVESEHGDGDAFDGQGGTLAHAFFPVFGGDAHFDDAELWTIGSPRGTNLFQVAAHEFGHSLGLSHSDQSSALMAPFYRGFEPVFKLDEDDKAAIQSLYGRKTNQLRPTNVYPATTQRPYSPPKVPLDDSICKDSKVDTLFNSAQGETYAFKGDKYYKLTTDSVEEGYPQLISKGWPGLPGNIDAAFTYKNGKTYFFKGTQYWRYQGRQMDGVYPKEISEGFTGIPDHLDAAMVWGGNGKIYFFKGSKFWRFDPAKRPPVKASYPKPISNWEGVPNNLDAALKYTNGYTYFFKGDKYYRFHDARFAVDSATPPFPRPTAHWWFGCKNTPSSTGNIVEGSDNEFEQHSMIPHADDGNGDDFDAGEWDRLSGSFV

## CNC(=O)[C@H](Cc1c[nH]c2ccccc12)NC(=O)[C@@H](CC(=O)NO)CC(C)C [GM6001]
[1]
  gelatin zymography of FLAG immunoprecipitate: GM6001 completely inhibited Mmp1 and Mmp2 catalytic activity on zymograms
[2]
  casein zymography of FLAG immunoprecipitate: GM6001 completely inhibited Mmp1 and Mmp2 catalytic activity on zymograms
